These results are taken from PubChem BioAssay AID179 (DTP/NCI, 2004).

Activity calls are given as the source filed them.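 How the source made its calls: active means compounds giving half or more protection of infected cells from virus-caused growth loss, again on retest; inactive means the rest.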 Where only a bound is given, the exact number is not on record here.

The experiment has as its system CEM cells HIV-1 protection, formazan growth assay. Put plainly: NCI AIDS Antiviral Assay. Conditions: for IC50: measured here: growth of uninfected CEM cells. The gist of the method: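 Soluble formazan readout of cell growth; CEM cells ± HIV-1; 5 drug concs. ≥50% protection → retest; ≥50% again = moderately active; reproducible 100% = confirmed active.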

For the compound `CC1=NN(c2ccccc2)C(=O)C1=Nc1c(C)[nH]n(-c2ccccc2)c1=O`, the EC50 is above 200 µM and the IC50 is above 200 µM.
For the compound `O=c1oc2c(ccc3nc(-c4ccccc4)sc32)c(N2CCOCC2)c1Cl`, the result was inactive.
As to `CCOC(=O)NC(NC1=NCCS1)(C(=O)OCC)C(F)(F)F` (stereo unspecified), the EC50 was above 200 µM and the IC50 turned out to be 191 µM.
The like results for `COc1cccc(SSc2cccc(OC)c2OC)c1OC` were, in that order, above 200 µM and 16.6 µM.
On the same counts, the results for `Cc1cc(C#N)c(Nc2ccccc2[N+](=O)[O-])s1` are above 200 µM and 42.7 µM.
The like results for `CC(=O)NCCSSCCSC(=S)N1CCCCC1` were, in that order, above 200 µM and 33.9 µM.
As for `COC(=O)/C=C\C(=O)/C=C/COC(=O)c1ccccc1`, the EC50 was above 132 µM and the IC50 came to 20.9 µM.
For the compound `O=c1/c(=C\c2ccccc2)sc2n1C(c1ccccc1)C1(O)CCCCC1N=2` (stereo unspecified), the EC50 was above 200 µM and the IC50 turned out to be 60.3 µM.
The like results for `CC12CCC(O1)C1C(=O)OC(=O)C12` (stereo unspecified) were, in that order, above 490 µM and 437 µM.
On the same counts, the results for `Cc1ccc(S(=O)(=O)N/N=C2\CC(C)OC3=C2CCCCCC3)cc1` (stereo unspecified) are above 200 µM and 33.9 µM.
On the same counts, the results for `CC(C)(Oc1ccc(C(=O)c2ccc(Cl)cc2)cc1Cl)C(=O)N1CCN(c2ccccc2)CC1` are above 20 µM and above 20 µM.
As to `CC(=O)OC1=C(c2ccccc2)c2ccccc2OC1`, the EC50 is above 26.9 µM and the IC50 is above 26.9 µM.
As for `COC1/C=C/OC2(C)Oc3c(C)c(O)c4c(O)c(c(/C=N/NC5CCCCCCCCCCCCCC5)c(O)c4c3C2=O)NC(=O)/C(C)=C\C=C\C(C)C(O)C(C)C(O)C(C)C(OC(C)=O)C1C` (stereo unspecified), the EC50 is above 200 µM and the IC50 turned out to be 10.5 µM.
On the same counts, the results for `CCCCCCCCCCCc1noc2c1C(=O)CCC2` are above 24.5 µM and above 24.5 µM.
On the same counts, the results for `O=C(O)c1cc2ccccc2oc1=O` are above 1320 µM and above 1320 µM.
On the same counts, the results for `Cn1cnc(N)c1S(N)(=O)=O` are above 1410 µM and above 1410 µM.
Regarding `C1CSCC2(COC2)CSCCSCC2(COC2)CS1`, the EC50 is above 14.8 µM and the IC50 was above 14.8 µM.
For `CC(=O)c1c(O)cc(O)c(-c2c(C)cc(O)c3c2C(=O)c2cccc(O)c2C3=O)c1O`, the EC50 is above 200 µM and the IC50 worked out at 25.7 µM.
The like results for `O=[N+]([O-])c1ccc(S(=O)(=O)N/N=C/C=C/c2ccccc2)cc1` were, in that order, above 151 µM and above 151 µM.
The like results for `CC(C)[C@@H](C)[C@@]1(C)C[C@@H]1[C@@H](C)[C@H]1CC[C@@H]([C@@H]2CC=C3C[C@@H](O)CC[C@]3(C)C2=O)[C@]1(C)CCO` were, in that order, above 200 µM and 8.51 µM.
The like results for `Cn1c(=O)n2n(c1=O)C1CCC2CC1` were, in that order, above 1290 µM and 437 µM.
In the case of `COc1ccc(-c2oc3c(CC(=O)O)cccc3c(=O)c2OC)cc1`, the EC50 was above 200 µM and the 50% inhibitory concentration (IC50) was 112 µM.
On the same counts, the results for `O=c1[nH]c(N/N=C\C(=N/Nc2nc3ccccc3c(=O)[nH]2)C(O)C(O)C(O)CO)nc2ccccc12` (stereo unspecified) are above 200 µM and above 200 µM.
The like results for `N#CCC(=O)N/N=C(\C(=O)Nc1ccc(Cl)c(Cl)c1)C1CN(c2ccccc2)N=C1N` (stereo unspecified) were, in that order, above 79.4 µM and above 79.4 µM.
On the same counts, the results for `CC(C)S(=O)(=O)ON1C(=O)c2ccc([N+](=O)[O-])cc2C1=O` are above 115 µM and 18.2 µM.
As to `CC(=O)Oc1ccc(/C=C/C(=O)OCCCOC(=O)/C=C/c2ccc(OC(C)=O)c(OC(C)=O)c2)cc1OC(C)=O`, the EC50 is above 100 µM and the 50% inhibitory concentration (IC50) was above 100 µM.
As to `COc1cc(SSc2cc(OC)cc([N+](=O)[O-])c2N)c(N)c([N+](=O)[O-])c1`, the EC50 was 4.47 µM and the IC50 was 15.5 µM.
The like results for `CN(C)C(=O)OC(Cn1cncn1)c1ccc(Cl)cc1Cl` (stereo unspecified) were, in that order, above 537 µM and 275 µM.
The like results for `CN1CCN(c2ncc3c(n2)sc2c(=O)n(-c4ccccc4)cnc23)CC1` were, in that order, above 200 µM and above 200 µM.
On to `COC(=O)C(=O)C(CC(=O)Nc1cc(Cl)ccc1Cl)C(=O)OC` (stereo unspecified), for which the EC50 was above 7.59 µM and the IC50 was above 7.59 µM.
Regarding `O=c1oc2ccccc2c(O)c1C(c1ccc2c(c1)Cc1ccccc1-2)c1c(O)c2ccccc2oc1=O`, the EC50 was above 200 µM and the IC50 worked out at 46.8 µM.
Turning to `CCOC(=O)c1cn(C)nc1N/C(C)=C\C(=O)c1ccccc1`, the EC50 is above 200 µM and the IC50 is 75.9 µM.
On the same counts, the results for `O=[N+]([O-])c1cccc2nccc(NCCCO)c12` are above 200 µM and 6.92 µM.
As to `O=c1[nH]c(=O)n(C2C=CC(CO)O2)cc1C(OCC(F)(F)F)OCC(F)(F)F` (stereo unspecified), the EC50 is above 141 µM and the IC50 is 72.4 µM.
The like results for `O=c1cn[nH]c2c(Cl)cccc12` were, in that order, above 589 µM and 355 µM.
The like results for `O=C1CSC(c2cccc([N+](=O)[O-])c2)N1c1ccc(-n2c(-c3ccccc3)nc3ccccc3c2=O)cc1` (stereo unspecified) were, in that order, above 200 µM and above 200 µM.
Turning to `CCOC(=O)/C(C1=N[C@H](C(=O)OCC)CS1)=C(\O)c1ccccc1`, the EC50 was above 145 µM and the IC50 is above 145 µM.
As for `O=C1Cc2cc3ccccc3nc2-c2ccccc2N1`, the EC50 is above 200 µM and the IC50 was above 200 µM.
In the case of `O=C1C(=Cc2ccccc2O)N=C(c2ccccc2)N1n1c(-c2ccccc2)nc2ccccc2c1=O`, the EC50 is above 200 µM and the IC50 worked out at 10.2 µM.
With `CCCCCCCCCc1cc(=O)c2c(O)cc(O)cc2o1`, the outcome was inactive.
Consider `Cc1ccc(OS(=O)(=O)c2ccccc2[N+](=O)[O-])cc1`, for which the result was active.
For the compound `CC1=CC2C(O)(CC(CO)=CC3C4C(C)(C)C4(O)C(O)C(C)C32O)C1=O` (stereo unspecified), the result was inactive.
For `CCOC(=O)/C(=C\c1ccc(C)o1)P(=O)(OCC)OCC`, the EC50 was above 794 µM and the IC50 was above 100 µM.
The like results for `O=C(NCCc1ccccc1)/C(=C\c1ccc(Cl)cc1Cl)NC(=O)c1ccccc1` were, in that order, above 200 µM and above 200 µM.
The like results for `Cc1ccc(S(=O)(=O)OCC2COC(C)(C)O2)cc1` (stereo unspecified) were, in that order, above 871 µM and above 871 µM.
The like results for `Cn1ccc(C(=O)NCCN(CCNC(=O)c2ccn(C)c(=O)c2O)CCNC(=O)c2ccn(C)c(=O)c2O)c(O)c1=O` were, in that order, above 200 µM and above 200 µM.
For `CC1(CCCO)CCCCCC(C)(CCCO)C1=O` (stereo unspecified), the EC50 was above 200 µM and the IC50 amounted to 97.7 µM.
For the compound `NC(=O)c1nnc2c(F)cccc2c1N`, the EC50 was above 200 µM and the IC50 turned out to be 182 µM.
The like results for `[N-]=[N+]=C1CNC(=O)NC1=O` were, in that order, above 200 µM and 30.2 µM.
The like results for `Cc1ccc(S(=O)(=O)Nn2c(O)c(C#N)c(-c3ccc([N+](=O)[O-])cc3)c(C#N)c2=O)cc1` were, in that order, above 200 µM and above 200 µM.
On the same counts, the results for `N#CC1(C#N)C2C=CC(C3CCC=C32)C1(C#N)C#N` (stereo unspecified) are above 200 µM and 7.76 µM.
The compound `Nc1ncnc2c1ncn2C1CC(O)C(CO)O1` (stereo unspecified) returned an EC50 above 1000 µM and a half-maximal inhibitory concentration (IC50) of 186 µM.
For the compound `CC(=O)NC(=O)c1ccccc1O`, the EC50 is above 724 µM and the IC50 is 389 µM.
With `CC1=NN(C(=O)CC(=O)Nc2ccccc2)C(=O)C1N=Nc1ccc(C(=O)O)cc1` (stereo unspecified), the EC50 is above 200 µM and the IC50 is 58.9 µM.
Consider `COC(=O)CCC1=NOC(CC2CC(CCC(=O)OC)=NO2)C1` (stereo unspecified), for which the result was inactive.
Consider `O=C1C=C(N2CCCCC2)c2cc(N3CCCCC3)ncc2C1=O`, for which the result was inactive.
In the case of `CC(C)(C)OC(=O)NCCCCC(NC(=O)c1ccccc1)C(N)=O` (stereo unspecified), the EC50 was above 200 µM and the IC50 is above 200 µM.
For the compound `CN=C(NCCCN1CCOCC1)c1ccc(NC(=O)c2ccc(C(=O)Nc3ccc(C(=NC)NCCCN4CCOCC4)cc3)cc2)cc1`, the EC50 was above 200 µM and the IC50 is 120 µM.
On the same counts, the results for `CC12OC3(C)c4ccccc4OP3(c3ccccc3)(Oc3ccccc31)O2` (stereo unspecified) are above 79.4 µM and above 79.4 µM.
On the same counts, the results for `COc1ccccc1NC(=O)C1=C(C)NC(C)=C(C(=O)Nc2ccccc2OC)C1c1cccc2ccccc12` are above 9.77 µM and above 9.77 µM.
Turning to `O=S(=O)(CC(Cl)c1ccccc1)c1nc2ccccc2s1` (stereo unspecified), the EC50 is above 200 µM and the half-inhibitory concentration (IC50) came to 2.14 µM.
With `CC1(Cl)CC2C(CC1Sc1nnnn1-c1ccccc1)C2(C)C` (stereo unspecified), the EC50 was above 20.9 µM and the IC50 was above 20.9 µM.
Turning to `N#C/C(=C\c1ccccc1)S(=O)(=O)/C(C#N)=C/c1ccc(O)c(O)c1`, the EC50 is above 200 µM and the IC50 amounted to 29.5 µM.
In the case of `CCCCCCCCCCCCC(CC)CCCCC(=O)O` (stereo unspecified), the outcome was inactive.
As for `O=c1[nH]c(=O)n(C2CC(O)C(COP(=O)(OCc3ccc([N+](=O)[O-])o3)N3CCCCC3)O2)cc1F` (stereo unspecified), the EC50 is above 200 µM and the IC50 was 0.17 µM.
The like results for `O=C1Oc2ccccc2C(=O)/C1=C/N1C(=O)/C(=C/c2ccccc2)NC1=S` were, in that order, above 200 µM and above 100 µM.
On the same counts, the results for `CCOC(=O)C1(C#N)C(=O)c2cc[n+](CC[n+]3ccc4c(c3)C(=O)C(C#N)(C(=O)OCC)C4=O)cc2C1=O` (stereo unspecified) are above 200 µM and 107 µM.
For the compound `CCOC(=O)CN1C(=O)c2c(NC(=O)C(=O)O)cccc2S1(=O)=O`, the EC50 is above 200 µM and the IC50 is above 200 µM.
In the case of `c1ccc2c(c1)[nH]c1c[n+]3c(c[n+]12)[nH]c1ccccc13`, the EC50 is above 200 µM and the IC50 is above 200 µM.
As for `Cc1ccc(/C=C2\CCCC\C2=N\O)cc1`, the outcome was inactive.
For `O=C(NNC(=O)c1ccccc1O)c1cccs1`, the EC50 was above 200 µM and the IC50 was 16.2 µM.
The like results for `C[C@@H]1CC(O)C2(O)C13CC(OC(=O)[C@@H]3O)C1(O)C(=O)OCC12C` (stereo partly specified) were, in that order, above 759 µM and above 759 µM.
